{"source": "patent US5340806A", "about": "“Composition containing organogermanium compound and immunity adjusting agent comprising the composition” (Sanwa Kagaku Kenkyusho Co., Ltd., priority 1984, dated 1994)", "key": {"[1]": {"test_system": "adjuvant arthritis in rats", "assay": "Adjuvant arthritis in rats", "format": "in vivo, S.D. male rats", "conditions": "100 mg/kg/day oral, FIG. 12", "procedure": "0.05 ml of an adjuvant (prepared by suspending 0.6 mg of micobacteriumbutircum into 0.05 ml of liquid paraffin) was injected under the skin of a hind leg heel in S.D. male rats. After 1, 3, 5, 7, 21, and 28 days from the adjuvant dosage, the volume of the dosed and non-dosed legs was measured to determine a ratio of the edema.\nThe organogermanium compound was orally dosed for 28 days after the adjuvant dosage, in an amount of 1, 10 and 100 mg/kg/day, respectively."}, "[2]": {"test_system": "chronic non A non B hepatitis", "assay": "Chronic non A non B hepatitis, 15/30/60 mg/day, 12 weeks (Table 5B)", "format": "in vivo, human patients", "procedure": "Search on utility or effectiveness of the organogermanium compound on patients who are infected with chronic B hepatitis, or with non A non B hepatitis, and show \"positive\" to HBe antigen as well as a preferable amount of dose thereof.\nThe amount of dose has been set as follows, by taking the results given in In Vivo Utilization Example 1 into consideration.\n(a) 60 mg/day/body showing most preferable data in effectiveness,\n(b) 30 mg/day/body showing effectiveness in some Experiments, and\n(c) 15 mg/day/body (for taking control data).\nExperimental period of time was set for 12 weeks.\n(a) Examination of liver functions (GOT, GPT, total bilirubin, LDH, y-GTP, and y-globulin), and\n(b) Examination with use of HBV marker (HBe-Ag)."}, "[3]": {"test_system": "chronic non A non B hepatitis", "format": "in vivo, human patients", "conditions": "60 mg/day, 12 weeks", "source_text": "Utility or effectiveness of the organogermanium compound is checked in comparison with that of a placebo as a control. Interferons have widely been accepted as drugs for curing chronic hepatitis, but those are injectionally dosed. On the contrary, the organogermanium compound is orally dosed. In recent years, some oral medicines for curing liver diseases have been developed and the effectiveness thereof has been evaluated by using a placebo as its control. Therefore, the \"placebo\" is selected as the control for the evaluation of the organogermanium compound in question. (b) To patients with non A non B hepatitis: 60 mg/day/body. Experiment period of time was set for 16 weeks for the patients with chronic B hepatitis and for 12 weeks for the patients with non A and non B hepatitis."}, "chronic B hepatitis": {"test_system": "chronic B hepatitis", "assay": "Long term dosing in chronic B hepatitis (In Vivo Utilization Example 4)", "design": "species or system human patients", "conditions": "for Liver tissue improvement: Ballooning of cell: 4 patients; for Liver tissue improvement: Bridging necrosis: 9 patients; for Liver tissue improvement: Fatty degeneration: 11 patients; for Liver tissue improvement: Moderation of lobule: 15 patients; for Glisson's capsule improvement: Piecemeal necrosis: 17 patients; for Glisson's capsule improvement: Fibrosis: 23 patients; for Glisson's capsule improvement: Round cell infiltration / Liver tissue improvement: Cobwebby necrosis / Liver tissue improvement: Degenerative necrosis in cell / Liver tissue improvement: Mobilization image of Kupfer cell: 24 patients", "procedure": "A capsule containing the organogermanium compound was dosed to patients infected with chronic B hepatitis over a long period of time at a rate of 30 mg/day/body as the effective compound to check safety and effectiveness.\n(a) Number of patients for analysis: 34 persons.\n(b) Mean dosing period of time: 55 weeks.\n(c) Number of patients who continuously dose over 48 weeks: 26 persons."}, "[4]": {"test_system": "spleen cells (PFC), SRBC sensitized mice", "assay": "Antibody production ability in normal mouse (spleen cell PFC)", "format": "in vivo, ICR mice", "conditions": "0.1, 1.0 and 10 mg/kg oral", "procedure": "To each group of ICR mice (age, 5 weeks), 2×10^8 and 2 ×10^7 of sheep red blood corpuscles (SRBC), as an […], were venously injected for sensitization in a tail vein of the mice. Then, immediately, the organogermanium compound dissolved in 4% cattle serum albumin solution was orally dosed to the sensitized mice in an amount of 0.1, 1.0 and 10 mg/kg, respectively. After 4 days from the sensitization, spleen cells were extracted to measure the number of PFC therein, which was used as an index of the antibody productivity."}}, "note": "Like-named read-outs stand apart in the source and are kept apart here."}
{"substance": "3-oxygermylpropionic acid [Compound No. 1]", "values": [{"measurement": "effect on secondary phlegmasia after 14 to 28 days", "setting": "[1]", "value": "an inhibition effect to a secondary phlegmasia"}, {"measurement": "Effectiveness (slight or more)", "setting": "[2]; 15 mg/day", "value": 33, "unit": "%"}, {"measurement": "General judgement: Improvement (slight or more)", "setting": "[2]; 15 mg/day", "value": 36, "unit": "%"}, {"measurement": "Safety (quite)", "setting": "[2]; 15 mg/day", "value": 91, "unit": "%"}, {"measurement": "Side effect", "setting": "[2]; 15 mg/day", "value": 9.4, "unit": "%"}, {"measurement": "Total bilirubin change", "setting": "[2]; 15 mg/day, 12 weeks", "value": ".dwnarw. *"}, {"measurement": "γ-GPT change", "setting": "[2]; 15 mg/day, 12 weeks", "value": ".dwnarw. +"}, {"measurement": "Effectiveness (slight or more)", "setting": "[2]; 30 mg/day", "value": 36, "unit": "%"}, {"measurement": "General judgement: Improvement (slight or more)", "setting": "[2]; 30 mg/day", "value": 37, "unit": "%"}, {"measurement": "Safety (quite)", "setting": "[2]; 30 mg/day", "value": 94, "unit": "%"}, {"measurement": "Side effect", "setting": "[2]; 30 mg/day", "value": 5.6, "unit": "%"}, {"measurement": "Effectiveness (slight or more)", "setting": "[2]; 60 mg/day", "value": 55, "unit": "%"}, {"measurement": "General judgement: Improvement (slight or more)", "setting": "[2]; 60 mg/day", "value": 57, "unit": "%"}, {"measurement": "Safety (quite)", "setting": "[2]; 60 mg/day", "value": 95, "unit": "%"}, {"measurement": "Side effect", "setting": "[2]; 60 mg/day", "value": 5.4, "unit": "%"}, {"measurement": "GOT change", "setting": "[2]; 60 mg/day, 12 weeks", "value": ".dwnarw. *"}, {"measurement": "GPT change", "setting": "[2]; 60 mg/day, 12 weeks", "value": ".dwnarw. **"}, {"measurement": "Total bilirubin change", "setting": "[2]; 60 mg/day, 12 weeks", "value": ".dwnarw. *"}, {"measurement": "γ-GPT change", "setting": "[2]; 60 mg/day, 12 weeks", "value": ".dwnarw. *"}, {"measurement": "γ-Globulin change", "setting": "[2]; 60 mg/day, 12 weeks", "value": ".dwnarw. *"}, {"measurement": "A/G change", "setting": "[3]", "value": ".uparw. +"}, {"measurement": "GOT change", "setting": "[3]", "value": ".dwnarw. ***"}, {"measurement": "GOT, test versus placebo", "setting": "[3]", "value": "** (S>P)"}, {"measurement": "GPT change", "setting": "[3]", "value": ".dwnarw. ***"}, {"measurement": "GPT, test versus placebo", "setting": "[3]", "value": "** (S>P)"}, {"measurement": "Serum albumin change", "setting": "[3]", "value": ".dwnarw. **"}, {"measurement": "γ-GPT change", "setting": "[3]", "value": ".dwnarw. *"}, {"measurement": "γ-GPT, test versus placebo", "setting": "[3]", "value": "* (S>P)"}, {"measurement": "Improvement (objective)", "setting": "[3]; placebo 10%", "value": 8, "unit": "%"}, {"measurement": "Improvement (sec. judgement)", "setting": "[3]; placebo 26%", "value": 51, "unit": "%"}, {"measurement": "Effectiveness (slight or more)", "setting": "[3]; placebo 29%", "value": 50, "unit": "%"}, {"measurement": "Improvement (Jud. by Doc.)", "setting": "[3]; placebo 29%", "value": 56, "unit": "%"}, {"measurement": "Improvement (general)", "setting": "[3]; placebo 32%", "value": 59, "unit": "%"}, {"measurement": "Improvement (self)", "setting": "[3]; placebo 48%", "value": 50, "unit": "%"}, {"measurement": "ratio of improvement in functions of liver (at least slight), judgement of doctor in charge", "setting": "chronic B hepatitis; 30 mg/day/body, mean 55 weeks", "value": 63, "unit": "%"}, {"measurement": "ratio of improvement in functions of liver (at least slight), secondary judgement of committee", "setting": "chronic B hepatitis; 30 mg/day/body, mean 55 weeks", "value": 59, "unit": "%"}, {"measurement": "patients changed to SC (seroconversion)", "setting": "chronic B hepatitis; among 23 HBe antigen positive", "value": 3, "unit": "patients"}, {"measurement": "patients changed to SN (seronegative)", "setting": "chronic B hepatitis; among 23 HBe antigen positive", "value": 3, "unit": "patients"}, {"measurement": "ratio of disappearance of HBe antigen", "setting": "chronic B hepatitis; among 23 HBe antigen positive", "value": 26, "unit": "%"}, {"measurement": "Liver tissue improvement: Evaluation", "setting": "chronic B hepatitis; ≥middle, 3/24", "value": 12.5, "unit": "%"}, {"measurement": "Liver tissue improvement: Ballooning of cell", "setting": "chronic B hepatitis; ≥middle", "value": 0, "unit": "%"}, {"measurement": "Liver tissue improvement: Bridging necrosis", "setting": "chronic B hepatitis; ≥middle", "value": 22.2, "unit": "%"}, {"measurement": "Liver tissue improvement: Fatty degeneration", "setting": "chronic B hepatitis; ≥middle", "value": 0, "unit": "%"}, {"measurement": "Liver tissue improvement: Moderation of lobule", "setting": "chronic B hepatitis; ≥middle", "value": 0, "unit": "%"}, {"measurement": "Glisson's capsule improvement: Piecemeal necrosis", "setting": "chronic B hepatitis; ≥middle", "value": 17.6, "unit": "%"}, {"measurement": "Glisson's capsule improvement: Fibrosis", "setting": "chronic B hepatitis; ≥middle", "value": 8.7, "unit": "%"}, {"measurement": "Glisson's capsule improvement: Round cell infiltration", "setting": "chronic B hepatitis; ≥middle", "value": 0, "unit": "%"}, {"measurement": "Liver tissue improvement: Cobwebby necrosis", "setting": "chronic B hepatitis; ≥middle", "value": 16.7, "unit": "%"}, {"measurement": "Liver tissue improvement: Degenerative necrosis in cell", "setting": "chronic B hepatitis; ≥middle", "value": 16.7, "unit": "%"}, {"measurement": "Liver tissue improvement: Mobilization image of Kupfer cell", "setting": "chronic B hepatitis; ≥middle", "value": 16.7, "unit": "%"}, {"measurement": "Liver tissue improvement: Ballooning of cell", "setting": "chronic B hepatitis; ≥slight", "value": 50.0, "unit": "%"}, {"measurement": "Liver tissue improvement: Bridging necrosis", "setting": "chronic B hepatitis; ≥slight", "value": 33.3, "unit": "%"}, {"measurement": "Liver tissue improvement: Evaluation", "setting": "chronic B hepatitis; ≥slight, 10/24", "value": 41.7, "unit": "%"}, {"measurement": "Liver tissue improvement: Fatty degeneration", "setting": "chronic B hepatitis; ≥slight", "value": 9.1, "unit": "%"}, {"measurement": "Liver tissue improvement: Moderation of lobule", "setting": "chronic B hepatitis; ≥slight", "value": 6.7, "unit": "%"}, {"measurement": "Glisson's capsule improvement: Piecemeal necrosis", "setting": "chronic B hepatitis; ≥slight", "value": 29.4, "unit": "%"}, {"measurement": "Glisson's capsule improvement: Fibrosis", "setting": "chronic B hepatitis; ≥slight", "value": 17.4, "unit": "%"}, {"measurement": "Glisson's capsule improvement: Round cell infiltration", "setting": "chronic B hepatitis; ≥slight", "value": 12.5, "unit": "%"}, {"measurement": "Liver tissue improvement: Cobwebby necrosis", "setting": "chronic B hepatitis; ≥slight", "value": 37.5, "unit": "%"}, {"measurement": "Liver tissue improvement: Degenerative necrosis in cell", "setting": "chronic B hepatitis; ≥slight", "value": 37.5, "unit": "%"}, {"measurement": "Liver tissue improvement: Mobilization image of Kupfer cell", "setting": "chronic B hepatitis; ≥slight", "value": 41.7, "unit": "%"}, {"measurement": "spleen cell PFC", "setting": "[4]; SRBC 2×10^7, FIG. 8b", "value": "increase it"}, {"measurement": "spleen cell PFC", "setting": "[4]; SRBC 2×10^8, FIG. 8a", "value": "tendancy to decrease spleen cell PFC"}]}
